Legend:
[1] = Bioavailability assay: single oral dose, plasma analysed by HPLC-UV, AUC compared with amorphous suspension control; assay type: in vivo, male cynomolgus monkeys; details: for bioavailability (in words): observed while developing a solid dosage form with conventional excipients
Method: The formulation to be tested was administered orally to male cynomolgus monkeys in a single dose (PO, single). The number of monkeys for each test is indicated by the letter “N” followed by an equal sign and a number. Thus, “(N=6)” means the formulation was administered to six monkeys. The total amount of the compound of Formula I administered was 100 or 200 mg given as one capsule or tablet containing 100 or 200 mg each. The administered dose (tablet, capsule or control suspension) was slowly washed down with 10 mL of water. Blood samples were taken at 15, 30 minutes, 1 hour, 2 hours, 4 hours, 6 hours, 8 hours, 12 hours, 24 hours, and 48 hours in heparinized syringes. Plasma for analysis was obtained by centrifugation at 4° C. Plasma samples (one per time point) were split and stored at −20° C. until assayed as described below.
The monkeys to be tested were fed two biscuits in the morning on the day of drug administration.
Monkeys that were fasted were not given any food overnight before drug administration and were fed normally after the 4-hour time point after drug administration.
Samples of monkey plasma were collected at selected time intervals. The plasma was analyzed by a high pressure liquid chromatograph (HPLC) procedure with ultraviolet detection. AUC (area under the plasma concentration-time curve, […]) values were calculated using standard procedures to determine the relative bioavailability of the compound in the tested formulations. The larger the AUC value, the greater the bioavailability.
A suspension of the compound of Formula I was used as a control. The control was made by suspending sufficient compound of Formula I in methyl cellulose solution to provide a dose of 30 mg/kg of body weight of monkey. The 0.4% methyl cellulose solution was made by adding 4 grams of methyl cellulose to one liter of distilled water and heating at about 80° C. with stirring for about 1½ hours.
The results of the bioavailability assay are given in terms of percent-relative bioavailability (AUC ratio) compared to amorphous suspension of Compound I in 0.4 methyl cellulose solution.

[2] = biological target: farnesyl protein transferase (Homo sapiens, UniProt P49356); details: cited from earlier work
abnormal growth of cells = details: cited from earlier work
[3] = fed monkeys, suspension of crystalline form vs suspension of amorphous form
[4] = suspension of crystalline form vs suspension of amorphous form, feeding state not printed in the sentence (fasted implied by b145)

Question: What does the source list for `NC(=O)N1CCC(CC(=O)N2CCC(C3c4ncc(Br)cc4CCc4cc(Cl)cc(Br)c43)CC2)CC1` (single isomer, unassigned; (+)) [Compound I, (+)-4-[4-(8-chloro-3,10-dibromo-6,11-dihydro-5H-benzo [5,6cyclohepta[1,2-b]pyridin-11-yl)-1-piperidinyl]-2-oxoethyl]-1-piperidinecarboxamide]?
Answer: relative bioavailability, % of the AUC of the amorphous suspension [1, 3]: 3.6%; relative bioavailability, % of the C max of the amorphous suspension [1, 3]: 5.2%; bioavailability (in words) ([1]; listed as compound of Formula I): extremely poor; bioavailability (in words) ([1]; listed as crystalline Compound I): very poor; relative bioavailability, % of the AUC of the amorphous suspension [1, 4]: 1.3%; relative bioavailability, % of the Cmax of the amorphous suspension [1, 4]: 2.7%; activity for inhibiting farnesyl protein transferase (in words) [2]: potent activity; activity for inhibiting the abnormal growth of cells (in words) (abnormal growth of cells): potent activity

Reference: patent publication US6632455B2, “Molecular dispersion composition with enhanced bioavailability” (Schering Corporation, priority 1997, dated 2003)
